# From patent US20260028365A1 (BIOGEN MA INC., priority 2022, published 2026)
# pIC50: −log10 of the molar value.
# Assays:
# Tyk2 = Tyk2 (Homo sapiens (Human), UniProt P29597); assay: pSTAT4 Cell Assay (MSD, NK92 cells); type: cell-based; conditions: MSD
# JH2 domain of human Tyk2 = JH2 domain of human Tyk2 (Homo sapiens (Human), UniProt P29597); assay: JH2 Biochemical Assay (TR-FRET probe displacement); type: binding
# JAK1 = JAK1 (Homo sapiens (Human), UniProt P23458); assay: pSTAT3 Cell Assay (MSD, TF1 cells); type: cell-based; conditions: MSD
# Method in brief: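 Serum-starved TF1 cells were pretreated with compound for 1 hour (10-point, four-fold dilutions from 10 μM), then stimulated with IL-6 for 15 minutes. Lysates were assayed for pSTAT3 by MSD with anti-STAT3 antibodies; IC50 came from a 4-parameter logistic fit of normalized percent activity.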
# JAK2 = JAK2 (Homo sapiens (Human), UniProt O60674); assay: pSTAT5 Cell Assay (MSD, TF1 cells); type: cell-based; conditions: MSD
# Method in brief: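 Serum-starved TF1 cells were pretreated with compound for 1 h (10-point four-fold series from 10 μM), then stimulated with 30 ng/mL IL-3 for 15 min. pSTAT5 in lysates was measured by MSD immunoassay. IC50 came from a 4-parameter logistic fit.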
# [1] = TR-FRET probe displacement, JH2 domain of human Tyk2
# [2] = JH2 domain of human Tyk2, TR-FRET probe displacement
# Sequence of Tyk2 (P29597 whole entry, the tested form may be a part): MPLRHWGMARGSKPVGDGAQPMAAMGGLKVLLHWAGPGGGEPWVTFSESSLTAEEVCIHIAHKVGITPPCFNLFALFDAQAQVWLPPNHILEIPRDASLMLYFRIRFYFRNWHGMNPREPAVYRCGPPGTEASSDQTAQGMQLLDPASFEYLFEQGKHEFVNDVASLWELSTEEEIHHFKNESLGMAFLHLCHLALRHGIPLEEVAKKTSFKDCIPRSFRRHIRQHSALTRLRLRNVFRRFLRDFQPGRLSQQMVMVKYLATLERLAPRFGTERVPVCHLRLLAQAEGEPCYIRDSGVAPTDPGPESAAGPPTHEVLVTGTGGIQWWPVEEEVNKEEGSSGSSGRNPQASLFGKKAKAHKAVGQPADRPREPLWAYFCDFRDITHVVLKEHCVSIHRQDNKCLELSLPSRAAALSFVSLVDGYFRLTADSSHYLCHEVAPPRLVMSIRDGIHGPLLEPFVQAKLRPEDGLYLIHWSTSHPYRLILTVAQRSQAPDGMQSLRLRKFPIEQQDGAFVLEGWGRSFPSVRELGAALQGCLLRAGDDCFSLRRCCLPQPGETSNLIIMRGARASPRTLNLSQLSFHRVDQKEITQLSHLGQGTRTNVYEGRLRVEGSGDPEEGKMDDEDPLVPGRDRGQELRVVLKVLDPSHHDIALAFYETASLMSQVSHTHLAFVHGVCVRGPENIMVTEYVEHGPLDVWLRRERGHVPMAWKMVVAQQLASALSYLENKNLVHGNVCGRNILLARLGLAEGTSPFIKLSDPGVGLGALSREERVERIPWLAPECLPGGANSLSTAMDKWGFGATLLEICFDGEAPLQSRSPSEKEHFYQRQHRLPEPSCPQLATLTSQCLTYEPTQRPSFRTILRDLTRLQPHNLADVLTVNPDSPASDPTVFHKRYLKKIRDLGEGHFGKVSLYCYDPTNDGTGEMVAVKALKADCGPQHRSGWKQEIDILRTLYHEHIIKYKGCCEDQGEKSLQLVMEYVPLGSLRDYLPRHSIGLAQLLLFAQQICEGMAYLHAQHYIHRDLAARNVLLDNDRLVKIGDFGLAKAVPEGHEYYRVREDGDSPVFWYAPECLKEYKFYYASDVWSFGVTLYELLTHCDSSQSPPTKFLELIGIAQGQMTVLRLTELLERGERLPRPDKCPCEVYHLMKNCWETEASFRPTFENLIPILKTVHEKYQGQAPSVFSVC
# Sequence of JH2 domain of human Tyk2 (P29597 575-876): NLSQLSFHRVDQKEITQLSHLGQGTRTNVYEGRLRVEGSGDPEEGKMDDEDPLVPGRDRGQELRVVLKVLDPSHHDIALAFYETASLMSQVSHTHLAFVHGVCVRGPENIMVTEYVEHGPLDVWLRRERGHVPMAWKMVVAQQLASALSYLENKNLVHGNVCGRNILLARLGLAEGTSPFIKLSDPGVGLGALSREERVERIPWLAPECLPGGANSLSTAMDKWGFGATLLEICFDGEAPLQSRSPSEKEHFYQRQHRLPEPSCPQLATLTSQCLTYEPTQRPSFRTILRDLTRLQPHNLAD
# Sequence of JAK2 (O60674 whole entry): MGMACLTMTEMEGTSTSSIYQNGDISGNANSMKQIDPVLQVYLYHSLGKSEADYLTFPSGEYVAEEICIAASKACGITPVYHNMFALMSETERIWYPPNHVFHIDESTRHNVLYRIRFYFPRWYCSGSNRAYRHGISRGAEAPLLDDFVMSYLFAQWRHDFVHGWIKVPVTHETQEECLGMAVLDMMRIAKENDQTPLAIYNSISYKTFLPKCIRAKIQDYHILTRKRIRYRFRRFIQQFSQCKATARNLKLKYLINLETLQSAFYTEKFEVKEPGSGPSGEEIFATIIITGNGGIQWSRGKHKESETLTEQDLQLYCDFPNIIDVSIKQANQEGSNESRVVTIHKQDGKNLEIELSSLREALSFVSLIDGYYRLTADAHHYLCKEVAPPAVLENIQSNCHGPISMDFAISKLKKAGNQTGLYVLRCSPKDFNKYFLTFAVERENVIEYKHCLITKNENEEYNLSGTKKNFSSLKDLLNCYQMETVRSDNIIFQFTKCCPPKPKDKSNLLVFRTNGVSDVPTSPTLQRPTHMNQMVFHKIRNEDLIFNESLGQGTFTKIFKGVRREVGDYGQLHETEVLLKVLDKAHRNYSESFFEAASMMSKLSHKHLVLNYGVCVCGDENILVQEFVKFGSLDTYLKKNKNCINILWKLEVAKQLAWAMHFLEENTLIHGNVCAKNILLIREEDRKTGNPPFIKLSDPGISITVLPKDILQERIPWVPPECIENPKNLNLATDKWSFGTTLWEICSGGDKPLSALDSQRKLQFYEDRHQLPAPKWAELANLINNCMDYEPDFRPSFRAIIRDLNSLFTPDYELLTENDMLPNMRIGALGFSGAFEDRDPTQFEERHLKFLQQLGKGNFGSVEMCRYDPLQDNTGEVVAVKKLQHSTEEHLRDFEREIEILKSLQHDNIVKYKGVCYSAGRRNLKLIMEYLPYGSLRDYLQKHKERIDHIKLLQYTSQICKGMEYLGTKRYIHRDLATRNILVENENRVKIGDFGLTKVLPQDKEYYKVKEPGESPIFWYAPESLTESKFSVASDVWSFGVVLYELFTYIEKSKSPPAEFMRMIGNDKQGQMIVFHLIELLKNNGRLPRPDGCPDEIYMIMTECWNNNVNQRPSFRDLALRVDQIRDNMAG
# Sequence of JAK1 (P23458 whole entry): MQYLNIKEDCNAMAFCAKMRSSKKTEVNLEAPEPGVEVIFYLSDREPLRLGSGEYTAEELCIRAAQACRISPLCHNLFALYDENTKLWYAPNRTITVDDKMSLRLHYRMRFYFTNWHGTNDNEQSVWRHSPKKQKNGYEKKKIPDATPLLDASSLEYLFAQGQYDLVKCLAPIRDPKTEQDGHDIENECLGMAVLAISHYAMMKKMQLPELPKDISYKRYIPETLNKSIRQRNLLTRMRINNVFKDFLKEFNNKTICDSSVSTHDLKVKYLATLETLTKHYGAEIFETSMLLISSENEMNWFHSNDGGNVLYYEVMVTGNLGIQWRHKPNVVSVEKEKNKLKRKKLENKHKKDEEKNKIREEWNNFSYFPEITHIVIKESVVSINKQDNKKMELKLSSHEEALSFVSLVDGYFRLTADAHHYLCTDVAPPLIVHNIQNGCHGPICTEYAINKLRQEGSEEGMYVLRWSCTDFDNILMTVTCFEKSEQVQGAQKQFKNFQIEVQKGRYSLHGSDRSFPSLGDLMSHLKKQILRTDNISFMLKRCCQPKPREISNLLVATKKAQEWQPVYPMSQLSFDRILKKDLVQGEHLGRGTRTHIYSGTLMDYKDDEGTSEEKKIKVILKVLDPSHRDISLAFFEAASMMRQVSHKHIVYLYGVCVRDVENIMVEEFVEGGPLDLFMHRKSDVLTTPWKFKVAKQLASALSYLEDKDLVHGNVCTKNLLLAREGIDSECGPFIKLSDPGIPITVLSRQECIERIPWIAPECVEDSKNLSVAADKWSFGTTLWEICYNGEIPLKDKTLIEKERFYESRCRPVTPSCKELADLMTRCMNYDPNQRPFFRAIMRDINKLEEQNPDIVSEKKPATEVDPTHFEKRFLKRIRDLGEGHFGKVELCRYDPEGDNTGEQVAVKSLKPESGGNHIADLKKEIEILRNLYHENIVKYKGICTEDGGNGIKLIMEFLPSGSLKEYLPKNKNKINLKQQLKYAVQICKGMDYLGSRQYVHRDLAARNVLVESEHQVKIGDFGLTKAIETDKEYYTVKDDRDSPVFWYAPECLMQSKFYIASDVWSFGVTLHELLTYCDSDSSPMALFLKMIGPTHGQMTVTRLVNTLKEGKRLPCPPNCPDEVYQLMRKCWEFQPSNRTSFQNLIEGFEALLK
Structure (SMILES),pIC50 (Tyk2),pIC50 (JH2 domain of human Tyk2; [1]),pIC50 (JAK1; IL-6 stimulation),pIC50 (JAK2; IL-3 stimulation),pIC50 (JH2 domain of human Tyk2; [2]),pIC50 (JAK1; IL-6 stimulated),pIC50 (JAK2; IL-3 stimulated)
"[2H]C([2H])([2H])n1cc(-c2cc(Nc3cc(NC(C)=O)ncc3OCC)nc(C(C)(F)F)n2)cn1 [Example 314, N-(4-((2-(1,1-difluoroethyl)-6-(1-(methyl-d3)-1H-pyrazol-4-yl)pyrimidin-4-yl)amino)-5-ethoxypyridin-2-yl)acetamide]",≥ 8.00,≥ 8.00,≤ 6.00,≤ 6.00,,,
"[2H]C([2H])([2H])Oc1cnc(NC(C)=O)cc1Nc1cc(C(C)C)nc(C(C)(F)F)n1 [Example 315, N-(4-((2-(1,1-difluoroethyl)-6-isopropylpyrimidin-4-yl)amino)-5-(methoxy-d3)pyridin-2-yl)acetamide]",7.00 to 8.00,≥ 8.00,≤ 6.00,≤ 6.00,,,
"CC(=O)Nc1cc(Nc2cc(C)nc(C(C)(F)F)n2)c(OCC[C@@H](C)F)cn1 [Example 336, (R)-N-(4-((2-(1,1-difluoroethyl)-6-methylpyrimidin-4-yl)amino)-5-(3-fluorobutoxy)pyridin-2-yl)acetamide]",7.00 to 8.00,≥ 8.00,≤ 6.00,≤ 6.00,,,
"CO[C@H]1C[C@H](Oc2cnc(NC(C)=O)cc2Nc2cc(OC3CC3)nc(C(C)(F)F)n2)C1 [Example 350, N-(4-((6-cyclopropoxy-2-(1,1-difluoroethyl)pyrimidin-4-yl)amino)-5-((1r,3r)-3-methoxycyclobutoxy)pyridin-2-yl)acetamide]",7.00 to 8.00,≥ 8.00,≤ 6.00,≤ 6.00,,,
"CO[C@H]1C[C@@H](Oc2cnc(NC(C)=O)cc2Nc2cc(OC3CC3)nc(C(C)(F)F)n2)C1 [Example 351, N-(4-((6-cyclopropoxy-2-(1,1-difluoroethyl)pyrimidin-4-yl)amino)-5-((1s,3s)-3-methoxycyclobutoxy)pyridin-2-yl)acetamide]",≥ 8.00,≥ 8.00,≤ 6.00,≤ 6.00,,,
"CC(=O)Nc1cc(Nc2cc(OC3CC3)nc(C(C)(F)F)n2)c(O[C@H]2C[C@@H](F)C2)cn1 [Example 353, N-(4-((6-cyclopropoxy-2-(1,1-difluoroethyl)pyrimidin-4-yl)amino)-5-((1s,3s)-3-fluorocyclobutoxy)pyridin-2-yl)acetamide]",≥ 8.00,≥ 8.00,≤ 6.00,≤ 6.00,,,
"CCOc1cnc(NC(=O)OC)cc1Nc1cc(C)nc(C(C)(F)F)n1 [Example 360, methyl (4-((2-(1,1-difluoroethyl)-6-methylpyrimidin-4-yl)amino)-5-ethoxypyridin-2-yl)carbamate]",7.00 to 8.00,≥ 8.00,≤ 6.00,≤ 6.00,,,
"[2H]C([2H])([2H])C([2H])([2H])Oc1cnc(NC(C)=O)cc1Nc1cc(C(C)C)nc(C(C)(F)F)n1 [Example 362, N-(4-((2-(1,1-difluoroethyl)-6-isopropylpyrimidin-4-yl)amino)-5-(ethoxy-d5)pyridin-2-yl)acetamide]",7.00 to 8.00,≥ 8.00,≤ 6.00,≤ 6.00,,,
"[2H]C([2H])(C)Oc1cnc(NC(C)=O)cc1Nc1cc(C(C)C)nc(C(C)(F)F)n1 [Example 364, N-(4-((2-(1,1-difluoroethyl)-6-isopropylpyrimidin-4-yl)amino)-5-(ethoxy-1,1-d2)pyridin-2-yl)acetamide]",7.00 to 8.00,≥ 8.00,≤ 6.00,≤ 6.00,,,
"COCCOc1cnc(NC(C)=O)cc1Nc1cc(C)nc(C(C)(C)F)n1 [Example 406, N-(4-((2-(2-fluoropropan-2-yl)-6-methylpyrimidin-4-yl)amino)-5-(2-methoxyethoxy)pyridin-2-yl)acetamide]",≥ 8.00,,,,≥ 8.00,≤ 6.00,≤ 6.00
"CC(=O)Nc1cc(Nc2cc(C)nc(C(C)(F)F)n2)c(OCC2COC(C)(C)CO2)cn1 (stereo not shown) [Example 430, N-(4-((2-(1,1-difluoroethyl)-6-methylpyrimidin-4-yl)amino)-5-((5,5-dimethyl-1,4-dioxan-2-yl)methoxy)pyridin-2-yl)acetamide]",7.00 to 8.00,,,,≥ 8.00,≤ 6.00,≤ 6.00
"CC(=O)Nc1cc(Nc2cc(OC3CC3)nc(C(C)(F)F)n2)c(OCC2COCCO2)cn1 (stereo not shown) [Example 445, N-(5-((1,4-dioxan-2-yl)methoxy)-4-((6-cyclopropoxy-2-(1,1-difluoroethyl)pyrimidin-4-yl)amino)pyridin-2-yl)acetamide]",≥ 8.00,,,,≥ 8.00,≤ 6.00,≤ 6.00
"COCCOc1cnc(NC(C)=O)cc1Nc1cc(OC2CC2)nc(C(C)(C)F)n1 [Example 446, N-(4-((6-cyclopropoxy-2-(2-fluoropropan-2-yl)pyrimidin-4-yl)amino)-5-(2-methoxyethoxy)pyridin-2-yl)acetamide]",≥ 8.00,,,,≥ 8.00,≤ 6.00,≤ 6.00
"CC(=O)Nc1cc(Nc2cc(C)nc(C(C)(F)F)n2)c(O)cn1 [Example 486, N-(4-((2-(1,1-difluoroethyl)-6-methylpyrimidin-4-yl)amino)-5-hydroxypyridin-2-yl)acetamide]",≤ 6.00,,,,7.00 to 8.00,≤ 6.00,≤ 6.00
"[2H]C([2H])([2H])C([2H])([2H])Oc1cnc(NC(C)=O)cc1Nc1cc(NC2CCC2)nc(C(C)(F)F)n1 [Example 488, N-(4-((6-(cyclobutylamino)-2-(1,1-difluoroethyl)pyrimidin-4-yl)amino)-5-(ethoxy-d5)pyridin-2-yl)acetamide]",≥ 8.00,,,,≥ 8.00,≤ 6.00,≤ 6.00
"[2H]C([2H])([2H])C([2H])([2H])Oc1cnc(NC(C)=O)cc1Nc1cc(OC2CC2)nc(C(C)(F)F)n1 [Example 489, N-(4-((6-cyclopropoxy-2-(1,1-difluoroethyl)pyrimidin-4-yl)amino)-5-(ethoxy-d5)pyridin-2-yl)acetamide]",≥ 8.00,,,,≥ 8.00,≤ 6.00,≤ 6.00
"CCOc1cnc(NC(C)=O)cc1Nc1cc(OC2CC2)nc(C(C)(F)F)n1 [Example 490, N-(4-((6-cyclopropoxy-2-(1,1-difluoroethyl)pyrimidin-4-yl)amino)-5-ethoxypyridin-2-yl)acetamide]",≥ 8.00,,,,≥ 8.00,≤ 6.00,≤ 6.00
"[2H]C([2H])([2H])C([2H])([2H])Oc1cnc(NC(C)=O)cc1Nc1cc(CC)nc(C(C)(F)F)n1 [Example 515, N-(4-((2-(1,1-difluoroethyl)-6-ethylpyrimidin-4-yl)amino)-5-(ethoxy-d5)pyridin-2-yl)acetamide]",7.00 to 8.00,,,,≥ 8.00,≤ 6.00,≤ 6.00
"COCCOc1ccc(-c2cnc(NC(C)=O)cc2Nc2cc(C)nc(C(C)(F)F)n2)nc1 [Example 522, N-(4′-((2-(1,1-difluoroethyl)-6-methylpyrimidin-4-yl)amino)-5-(2-methoxyethoxy)-[2,3′-bipyridin]-6′-yl)acetamide]",≥ 8.00,,,,≥ 8.00,≤ 6.00,≤ 6.00
"CC(=O)Nc1cc(Nc2cc(C)nc(C(C)(F)F)n2)c(-c2cc3n(n2)CCOC3)cn1 [Example 528, N-(4-((2-(1,1-difluoroethyl)-6-methylpyrimidin-4-yl)amino)-5-(6,7-dihydrO4H-pyrazolo[5,1-c][1,4]oxazin-2-yl)pyridin-2-yl)acetamide]",≥ 8.00,,,,≥ 8.00,≤ 6.00,≤ 6.00
"CC(=O)Nc1cc(Nc2cc(C)nc(C(C)(C)F)n2)c(-c2ccn3ncnc3n2)cn1 [Example 534, N-(5-([1,2,4]triazolo[1,5-a]pyrimidin-5-yl)-4-((2-(2-fluoropropan-2-yl)-6-methylpyrimidin-4-yl)amino)pyridin-2-yl)acetamide]",≥ 8.00,,,,≥ 8.00,≤ 6.00,≤ 6.00
"CC(=O)Nc1cc(Nc2cc(C)nc(C34COC(C3)C4)n2)c(-c2ccn(C)n2)cn1 [Example 552, N-(4-((2-(2-oxabicyclo[2.1.1]hexan-4-yl)-6-methylpyrimidin-4-yl)amino)-5-(1-methyl-1H-pyrazol-3-yl)pyridin-2-yl)acetamide]",7.00 to 8.00,,,,≥ 8.00,≤ 6.00,≤ 6.00
"COCc1ccc(-c2cnc(NC(C)=O)cc2Nc2cc(C)nc(C34COC(C3)C4)n2)nc1 [Example 565, N-(4′-((2-(2-oxabicyclo[2.1.1]hexan-4-yl)-6-methylpyrimidin-4-yl)amino)-5-(methoxymethyl)-[2,3′-bipyridin]-6′-yl)acetamide]",≥ 8.00,,,,≥ 8.00,≤ 6.00,≤ 6.00
"CCc1cc(Nc2cc(NC(C)=O)ncc2-c2ccc(COC)cn2)nc(C23COC(C2)C3)n1 [Example 566, N-(4′-((2-(2-oxabicyclo[2.1.1]hexan-4-yl)-6-ethylpyrimidin-4-yl)amino)-5-(methoxymethyl)-[2,3′-bipyridin]-6′-yl)acetamide]",≥ 8.00,,,,≥ 8.00,≤ 6.00,≤ 6.00
"CC(=O)Nc1cc(Nc2ccnc(C(C)(F)F)n2)c(-c2ccc(F)cn2)cn1 [Example 580, N-(4′-((2-(1,1-difluoroethyl)pyrimidin-4-yl)amino)-5-fluorO[2,3′-bipyridin]-6′-yl)acetamide]",≥ 8.00,,,,≥ 8.00,≤ 6.00,≤ 6.00
